Patent US9206156B2, “Substituted indole derivatives” (GRÜNENTHAL GMBH, priority 2008, dated 2015)

Tests used:
human μ-opiate receptor = molecular target: T1, human μ-opiate receptor (Homo sapiens, UniProt P35372); experiment: μ-opiate receptor binding assay with [3H] naloxone (WGA-SPA beads); details: 1 μmol/l test substance, 1 nmol/l [3H] naloxone, CHO-K1 cell membranes expressing human μ-opiate receptor
T1 construct: purchased NEN, Zaventem, Belgium RB-HOM; host or cells: CHO-K1 cells (membrane preparation)
Procedure, shortened: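 Scintillation proximity readout: [3H]naloxone (1 nmol/l) displacement measured after 90 min, room temperature, on human μ-receptor CHO-K1 membranes in Tris-HCl/azide/BSA buffer; 25 μmol/l naloxone defined non-specific binding. Values are % specific-binding inhibition at 1 μmol/l, or Ki from IC50 (Cheng-Prusoff).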

ORL1 receptor = molecular target: T2, ORL1 receptor (Homo sapiens, UniProt P41146); experiment: ORL1 receptor binding assay with 3H-nociceptin/orphanin FQ (WGA-SPA beads); details: c=1 μM test substance; 0.5 nM 3H-nociceptin/orphanin FQ; membranes of recombinant CHO-ORL1 cells
T2 construct: expressed in transfected cells; host or cells: CHO (recombinant CHO-ORL1 cells), membranes
Procedure, shortened: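 Affinity given as nanomolar Ki or as % inhibition at c=1 μM. Membranes of CHO cells expressing recombinant ORL1 (20 μg protein) were incubated one hour at room temperature with 0.5 nM 3H-nociceptin/orphanin FQ in Hepes 50 mM, pH 7.4, plus MgCl2 and EDTA; bound ligand detected by SPA bead scintillation counting.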

T2 sequence (P41146 whole entry): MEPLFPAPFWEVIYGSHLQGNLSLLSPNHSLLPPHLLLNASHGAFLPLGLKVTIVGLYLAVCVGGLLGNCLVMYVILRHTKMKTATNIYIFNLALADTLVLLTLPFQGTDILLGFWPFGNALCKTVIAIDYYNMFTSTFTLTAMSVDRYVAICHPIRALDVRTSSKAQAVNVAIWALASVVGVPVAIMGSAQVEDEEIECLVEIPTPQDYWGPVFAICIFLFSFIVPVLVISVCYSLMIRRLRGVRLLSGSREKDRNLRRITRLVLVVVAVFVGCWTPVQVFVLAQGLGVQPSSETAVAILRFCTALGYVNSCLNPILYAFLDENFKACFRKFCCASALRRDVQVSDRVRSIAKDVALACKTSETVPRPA
T1 sequence (P35372 whole entry): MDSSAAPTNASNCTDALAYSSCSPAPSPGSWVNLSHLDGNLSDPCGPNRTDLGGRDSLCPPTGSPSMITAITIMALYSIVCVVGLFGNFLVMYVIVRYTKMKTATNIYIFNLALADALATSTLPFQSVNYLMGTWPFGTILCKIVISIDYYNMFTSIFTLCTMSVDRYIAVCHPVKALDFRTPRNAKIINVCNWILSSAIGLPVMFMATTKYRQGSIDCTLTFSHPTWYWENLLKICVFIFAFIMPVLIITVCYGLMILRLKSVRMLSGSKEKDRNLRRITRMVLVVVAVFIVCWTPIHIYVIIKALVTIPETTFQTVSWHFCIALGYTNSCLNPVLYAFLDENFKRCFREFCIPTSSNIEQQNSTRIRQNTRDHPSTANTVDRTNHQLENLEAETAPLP

CN(C)C1(c2ccccc2)CCN(C(=O)C2CN(Cc3cccc4[nH]ccc34)c3ccccc32)CC1 (centres unmarked) [Example 175]
% Inhibition (μ) at 1 μM (human μ-opiate receptor): 70%
% Inhibition (ORL1) at 1 μM (ORL1 receptor): 10%

CN(CCN1CCC(c2ccccc2)(N2CCCC2)CC1)C(=O)c1cc2cc(F)ccc2[nH]1 [Example 51, 5-Fluoro-N-methyl-N-(2-(4-phenyl-4-(pyrrolidin-1-yl)piperidin-1-yl)ethyl)-1H-indole-2-carboxamide]
inhibition at 1 µM (human μ-opiate receptor): 43%
inhibition at 1 µM (ORL1 receptor): 26%

CN(C)C1(c2ccccc2)CCN(C(=O)C2CN(Cc3ccc4[nH]ccc4c3)c3ccccc32)CC1 (centres unmarked) [Example 166, (1-((1H-indol-5-yl)methyl)indolin-3-yl)(4-(dimethylamino)-4-phenylpiperidin-1-yl)methanone]
inhibition at 1 µM (human μ-opiate receptor): 77%
inhibition at 1 µM (ORL1 receptor): 40%

CC(C)C(CC(=O)NC(CC(=O)N1CCC(c2cccs2)(N(C)C)CC1)c1ccccc1)c1c[nH]c2ccccc12 (centres unmarked) [Example 85, N-(3-(4-(dimethylamino)-4-(thiophen-2-yl)piperidin-1-yl)-3-oxo-1-phenylpropyl)-3-(1H-indol-3-yl)-4-methylpentanamide]
inhibition at 1 µM (human μ-opiate receptor): 101%
inhibition at 1 µM (ORL1 receptor): 94%

CN(C)C1(c2ccccc2)CCN(C(=O)CCNCc2ccc3[nH]ccc3c2)CC1 [Example 142, 3-((1H-indol-5-yl)methylamino)-1-(4-(dimethylamino)-4-phenylpiperidin-1-yl)propan-1-one]
inhibition at 1 µM (human μ-opiate receptor): 78%
inhibition at 1 µM (ORL1 receptor): 40%

CC(CC(=O)N(C)CCCN1CCC(c2ccccc2)(N(C)C)CC1)c1c[nH]c2ccccc12 (centres unmarked) [Example 59, N-(3-(4-(Dimethylamino)-4-phenylpiperidin-1-yl)propyl)-3-(1H-indol-3-yl)-N-methylbutanamide]
inhibition at 1 µM (human μ-opiate receptor): 86%
inhibition at 1 µM (ORL1 receptor): 60%

CN(CCN1CCC(c2ccccc2)(N(C)C)CC1)C(=O)C1CCCc2c1[nH]c1ccc(Cl)cc21 (centres unmarked) [Example 127, 6-chloro-N-(2-(4-(dimethylamino)-4-phenylpiperidin-1-yl)ethyl)-N-methyl-2,3,4,9-tetrahydro-1H-carbazole-1-carboxamide]
inhibition at 1 µM (human μ-opiate receptor): 68%
% Inhibition (ORL1) at 1 μM (ORL1 receptor): 39%

CN(C(=O)C1CCCc2c1[nH]c1ccc(Cl)cc21)C(C(=O)N1CCC(c2cccs2)(N(C)C)CC1)c1ccccc1 (centres unmarked) [Example 134, 6-chloro-N-(2-(4-(dimethylamino)-4-(thiophen-2-yl)piperidin-1-yl)-2-oxo-1-phenylethyl)-N-methyl-2,3,4,9-tetrahydro-1H-carbazole-1-carboxamide]
inhibition at 1 µM (human μ-opiate receptor): 34%
inhibition at 1 µM (ORL1 receptor): 29%

CN(C)C1(c2cccs2)CCN(C(=O)CNC(=O)c2ccc3ccn(C)c3c2)CC1 [Example 109, N-(2-(4-(dimethylamino)-4-(thiophen-2-yl)piperidin-1-yl)-2-oxoethyl)-1-methyl-1H-indole-6-carboxamide]
inhibition at 1 µM (human μ-opiate receptor): 81%
inhibition at 1 µM (ORL1 receptor): 61%

CN(C)C1(c2ccccc2)CCN(C(=O)C2CN(C(=O)Cc3c[nH]c4cc(F)ccc34)c3ccccc32)CC1 (centres unmarked) [Example 86, 1-(3-(4-(dimethylamino)-4-phenylpiperidine-1-carbonyl)indolin-1-yl)-2-(6-fluoro-1H-indol-3-yl)ethanone]
inhibition at 1 µM (human μ-opiate receptor): 88%
inhibition at 1 µM (ORL1 receptor): 94%

CN(CCN1CCC(c2ccccc2)(N(C)C)CC1)Cc1c[nH]c2ccc(Cl)cc12 [Example 183, 1-(2-(((5-chloro-1H-indol-3-yl)methyl)(methy)amino)ethyl)-N,N-dimethyl-4-phenylpiperidin-4-amine]
% Inhibition (μ) at 1 μM (human μ-opiate receptor; 1 µM): 100%
% Inhibition (ORL1) at 1 μM (ORL1 receptor): 95%

CN(C)C1(c2ccccc2)CCN(C(=O)C2CCCN(C(=O)Cc3c[nH]c4ccc(Br)cc34)C2)CC1 (centres unmarked) [Example 115, 2-(5-bromo-1H-indol-3-yl)-1-(3-(4-(dimethylamino)-4-phenylpiperidine-1-carbonyl)piperidin-1-yl)ethanone]
inhibition at 1 µM (human μ-opiate receptor): 72%
inhibition at 1 µM (ORL1 receptor): 53%

CN(CCN1CCC(c2ccccc2)(N(C)C)CC1)Cc1c(-c2ccc(F)cc2)[nH]c2ccccc12 [Example 70, 1-(2-(((2-(4-Fluorophenyl)-1H-indol-3-yl)methyl)(methyl)amino)ethyl)-N,N-dimethyl-4-phenylpiperidin-4-amine]
inhibition at 1 µM (human μ-opiate receptor): 98%
inhibition at 1 µM (ORL1 receptor): 80%

CN(C(=O)c1ccc2ccn(C)c2c1)C(C(=O)N1CCC(c2cccs2)(N(C)C)CC1)c1ccccc1 (centres unmarked) [Example 111, N-(2-(4-(dimethylamino)-4-(thiophen-2-yl)piperidin-1-yl)-2-oxo-1-phenylethyl)-N,1-dimethyl-1H-indole-6-carboxamide]
inhibition at 1 µM (human μ-opiate receptor): 82%
inhibition at 1 µM (ORL1 receptor): 60%

CN(C)C1(c2cccs2)CCN(C(=O)CC(NCc2cccc3[nH]ccc23)c2ccccc2)CC1 (centres unmarked) [Example 174, 3-((1H-indol-4-yl)methylamino)-1-(4-(dimethylamino)-4-(thiophen-2-yl)piperidin-1-yl)-3-phenylpropan-1-one]
inhibition at 1 µM (human μ-opiate receptor): 92%
inhibition at 1 µM (ORL1 receptor): 68%

CC(C)C(CC(=O)N(C)CCCN1CCC(c2cccs2)(N(C)C)CC1)c1c[nH]c2ccccc12 (centres unmarked) [Example 23, N-(3-(4-(Dimethylamino)-4-(thiophen-2-yl)piperidin-1-yl)propyl)-3-(1H-indol-3-yl)-N,4-dimethylpentanamide]
inhibition at 1 µM (human μ-opiate receptor): 86%
inhibition at 1 µM (ORL1 receptor): 53%

CCCCC1(N(C)C)CCN(CCN(C)Cc2c[nH]c3ccccc23)CC1 [Example 138, 1-(2-(((1H-indol-3-yl)methyl)(methyl)amino)ethyl)-4-butyl-N,N-dimethylpiperidin-4-amine]
inhibition at 1 µM (human μ-opiate receptor): 81%
inhibition at 1 µM (ORL1 receptor): 12%

CN(CCCN1CCC(c2cccs2)(N(C)C)CC1)C(=O)c1ccc2ccn(C)c2c1 [Example 28, N-(3-(4-(Dimethylamino)-4-(thiophen-2-yl)piperidin-1-yl)propyl)-N,1-dimethyl-1H-indole-6-carboxamide]
inhibition at 1 µM (human μ-opiate receptor): 88%
inhibition at 1 µM (ORL1 receptor): 36%

CC(C)C(CC(=O)NCCN1CCC(c2cccs2)(N(C)C)CC1)c1c[nH]c2ccccc12 (centres unmarked) [Example 2, N-(2-(4-(Dimethylamino)-4-(thiophen-2-yl)piperidin-1-yl)ethyl)-3-(1H-indol-3-yl)-4-methylpentanamide]
inhibition at 1 µM (human μ-opiate receptor): 99%
inhibition at 1 µM (ORL1 receptor): 96%

CN(C)C1(c2ccccc2)CCN(C(=O)C2CCCN(C(=O)C3CCCc4c3[nH]c3ccc(Cl)cc43)C2)CC1 (centres unmarked) [Example 103, (6-chloro-2,3,4,9-tetrahydro-1H-carbazol-1-yl)(3-(4-(dimethylamino)-4-phenylpiperidine-1-carbonyl)piperidin-1-yl)methanone]
inhibition at 1 µM (human μ-opiate receptor): 35%
inhibition at 1 µM (ORL1 receptor): 65%

CN(C(=O)Cc1c[nH]c2cc(F)ccc12)C(C(=O)N1CCC(c2cccs2)(N(C)C)CC1)c1ccccc1 (centres unmarked) [Example 95, N-(2-(4-(dimethylamino)-4-(thiophen-2-yl)piperidin-1-yl)-2-oxo-1-phenylethyl)-2-(6-fluoro-1H-indol-3-yl)-N-methylacetamide]
inhibition at 1 µM (human μ-opiate receptor): 81%
inhibition at 1 µM (ORL1 receptor): 82%

CN(CCCN1CCC(c2cccs2)(N(C)C)CC1)C(=O)c1cc2cc(F)ccc2[nH]1 [Example 15, N-(3-(4-(Dimethylamino)-4-(thiophen-2-yl)piperidin-1-yl)propyl)-5-fluoro-N-methyl-1H-indole-2-carboxamide]
inhibition at 1 µM (human μ-opiate receptor): 88%
inhibition at 1 µM (ORL1 receptor): 58%

CN(C)C1(c2ccccc2)CCN(C(=O)C2CN(Cc3ccc4cc[nH]c4c3)c3ccccc32)CC1 (centres unmarked) [Example 170, (1-((1H-indol-6-yl)methyl)indolin-3-yl)(4-(dimethylamino)-4-phenylpiperidin-1-yl)methanone]
inhibition at 1 µM (human μ-opiate receptor): 80%
inhibition at 1 µM (ORL1 receptor): 38%

CN(C)C1(c2ccccc2)CCN(C(=O)C2CCCN(C(=O)CCc3c[nH]c4ccccc34)C2)CC1 (centres unmarked) [Example 123, 1-(3-(4-(dimethylamino)-4-phenylpiperidine-1-carbonyl)piperidin-1-yl)-3-(1H-indol-3-yl)propan-1-one]
inhibition at 1 µM (human μ-opiate receptor): 72%
inhibition at 1 µM (ORL1 receptor): 43%

COc1ccc2[nH]cc(CNCCN3CCC(c4cccs4)(N(C)C)CC3)c2c1 [Example 188, 1-(2-((5-methoxy-1H-indol-3-yl)methylamino)ethyl)-N,N-dimethyl-4-(thiophen-2-yl)piperidin-4-amine]
inhibition at 1 µM (human μ-opiate receptor): 99%
inhibition at 1 µM (ORL1 receptor): 85%

CN(C)C1(c2ccccc2)CCN(C(=O)C2CCCN(Cc3cccc4cc[nH]c34)C2)CC1 (centres unmarked) [Example 158, (1-((1H-indol-7-yl)methyl)piperidin-3-yl)(4-(dimethylamino)-4-phenylpiperidin-1-yl)methanone]
inhibition at 1 µM (human μ-opiate receptor): 93%
inhibition at 1 µM (ORL1 receptor): 61%

CC(C)C(C(=O)N1CCC(c2ccccc2)(N(C)C)CC1)N(C)Cc1ccc2cc[nH]c2c1 (centres unmarked) [Example 149, 2-(((1H-indol-6-yl)methyl)(methyl)amino)-1-(4-(dimethylamino)-4-phenylpiperidin-1-yl)-3-methylbutan-1-one]
inhibition at 1 µM (human μ-opiate receptor): 54%
inhibition at 1 µM (ORL1 receptor): 52%

CC(CC(=O)NC(CC(=O)N1CCC(c2cccs2)(N(C)C)CC1)c1ccccc1)c1c[nH]c2ccccc12 (centres unmarked) [Example 91, N-(3-(4-(dimethylamino)-4-(thiophen-2-yl)piperidin-1-yl)-3-oxo-1-phenylpropyl)-3-(1H-indol-3-yl)butanamide]
inhibition at 1 µM (human μ-opiate receptor): 97%
inhibition at 1 µM (ORL1 receptor): 89%
